In patent US20220125051A1, “PRE-HARVEST DESICCATION METHOD” (SYNGENTA CROP PROTECTION AG, priority 2019, published 2022):

Assays:
Test in all cases: Post-emergence efficacy, Method A
Format in all cases: in vivo
[1] = system: Chenopodium album (CHEAL); settings: Chenopodium album, post-emergence, 312 h; Application rate 500 g/Ha; evaluated after 13 days; 100=total damage to plant, 0=no damage to plant; read-out: Control of weed species after post-emergence application, CHEAL
How it was run: (§1)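 Plants raised 14 days from seed in standard soil in a glasshouse (24/16 °C day/night, 14 h light, 65% humidity) were sprayed with compound dissolved in acetone plus IF50 solvent/emulsifier (50 g/l solution), diluted with 0.25% or 1% Empicol ESC70 + 1% ammonium sulphate. Damage was scored visually after 13 days (0 = none, 100 = total).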

[2] = system: Ipomoea hederacea (IPOHE); settings: Ipomoea hederacea, post-emergence, 312 h, Application rate 500 g/Ha; evaluated after 13 days; 100=total damage to plant, 0=no damage to plant; read-out: Control of weed species after post-emergence application, IPOHE
How it was run: as §1

Eleusine indica (ELEIN) = settings: Eleusine indica, post-emergence, 312 h; Application rate 500 g/Ha; evaluated after 13 days; 100=total damage to plant, 0=no damage to plant; read-out: Control of weed species after post-emergence application, ELEIN
How it was run: as §1

[3] = system: Digitaria sanguinalis (DIGSA); settings: Digitaria sanguinalis, post-emergence, 312 h; Application rate 500 g/Ha; evaluated after 13 days; 100=total damage to plant, 0=no damage to plant; read-out: Control of weed species after post-emergence application, DIGSA
How it was run: as §1

Setaria faberi (SETFA) = settings: Setaria faberi, post-emergence, 312 h; Application rate 500 g/Ha; evaluated after 13 days; 100=total damage to plant, 0=no damage to plant; read-out: Control of weed species after post-emergence application, SETFA
How it was run: as §1

[4] = system: Euphorbia heterophylla (EPHHL); settings: Euphorbia heterophylla, post-emergence, 312 h; Application rate 500 g/Ha; evaluated after 13 days; 100=total damage to plant, 0=no damage to plant; read-out: Control of weed species after post-emergence application, EPHHL
How it was run: as §1

[5] = system: Amaranthus palmeri (AMAPA); settings: Amaranthus palmeri, post-emergence, 312 h; Application rate 500 g/Ha; evaluated after 13 days; 100=total damage to plant, 0=no damage to plant; read-out: Control of weed species after post-emergence application, AMAPA
How it was run: as §1

Lolium perenne (LOLPE) = settings: Lolium perenne, post-emergence, 312 h, Application rate 500 g/Ha; evaluated after 13 days; 100=total damage to plant, 0=no damage to plant; read-out: Control of weed species after post-emergence application, LOLPE
How it was run: as §1

[6] = system: Echinochloa crus-galli (ECHCG); settings: Echinochloa crus-galli, post-emergence, 312 h; Application rate 500 g/Ha; evaluated after 13 days; 100=total damage to plant, 0=no damage to plant; read-out: Control of weed species after post-emergence application, ECHCG
How it was run: as §1

CN(C)c1cnc(-c2cc[n+](CCC(=O)[O-])nc2)nc1 [Compound A42]
pest or weed control at 500 g/ha [1]: 0%
pest or weed control at 500 g/ha [2]: 20%
pest or weed control at 500 g/ha (Eleusine indica (ELEIN)): 20%
pest or weed control at 500 g/ha [3]: 50%
pest or weed control at 500 g/ha (Setaria faberi (SETFA)): 50%
pest or weed control at 500 g/ha [4]: 30%
pest or weed control at 500 g/ha [5]: 50%
pest or weed control at 500 g/ha (Lolium perenne (LOLPE)): 0%
pest or weed control at 500 g/ha [6]: 30%

Nc1cnc(-c2cc[n+](CCC(=O)[O-])nc2)nc1 [Compound A44]
pest or weed control at 500 g/ha [1]: 10%
pest or weed control at 500 g/ha [2]: 20%
pest or weed control at 500 g/ha (Eleusine indica (ELEIN)): 20%
pest or weed control at 500 g/ha [3]: 40%
pest or weed control at 500 g/ha (Setaria faberi (SETFA)): 60%
pest or weed control at 500 g/ha [4]: 20%
pest or weed control at 500 g/ha [5]: 40%
pest or weed control at 500 g/ha (Lolium perenne (LOLPE)): 20%
pest or weed control at 500 g/ha [6]: 30%

CS(=O)(=O)c1cnc(-c2cc[n+](CCC(=O)[O-])nc2)nc1 [Compound A46]
pest or weed control at 500 g/ha [1]: 10%
pest or weed control at 500 g/ha [2]: 10%
pest or weed control at 500 g/ha (Eleusine indica (ELEIN)): 50%
pest or weed control at 500 g/ha [3]: 50%
pest or weed control at 500 g/ha (Setaria faberi (SETFA)): 50%
pest or weed control at 500 g/ha [4]: 60%
pest or weed control at 500 g/ha [5]: 70%
pest or weed control at 500 g/ha (Lolium perenne (LOLPE)): 20%
pest or weed control at 500 g/ha [6]: 30%

CC(=O)c1ccnc(-c2cc[n+](CCS(=O)(=O)[O-])nc2)n1 [Compound A49]
pest or weed control at 500 g/ha [1]: 80%
pest or weed control at 500 g/ha [2]: 60%
pest or weed control at 500 g/ha (Eleusine indica (ELEIN)): 100%
pest or weed control at 500 g/ha [3]: 90%
pest or weed control at 500 g/ha (Setaria faberi (SETFA)): 100%
pest or weed control at 500 g/ha [4]: 70%
pest or weed control at 500 g/ha [5]: 100%
pest or weed control at 500 g/ha (Lolium perenne (LOLPE)): 50%
pest or weed control at 500 g/ha [6]: 60%

O=S(=O)([O-])CC[n+]1ccc(-c2nccc(C3CC3)n2)cn1 [Compound A50]
pest or weed control at 500 g/ha [1]: 20%
pest or weed control at 500 g/ha [2]: 50%
pest or weed control at 500 g/ha (Eleusine indica (ELEIN)): 90%
pest or weed control at 500 g/ha [3]: 50%
pest or weed control at 500 g/ha (Setaria faberi (SETFA)): 60%
pest or weed control at 500 g/ha [4]: 90%
pest or weed control at 500 g/ha [5]: 100%
pest or weed control at 500 g/ha (Lolium perenne (LOLPE)): 60%
pest or weed control at 500 g/ha [6]: 40%

COC(=O)CC[n+]1ccc(-c2ncccn2)cn1 [Compound A54, methyl 3-(4-pyrimidin-2-ylpyridazin-1-ium-1-yl)propanoate 2,2,2-trifluoroacetate]
pest or weed control at 500 g/ha [1]: 90%
pest or weed control at 500 g/ha [2]: 10%
pest or weed control at 500 g/ha (Eleusine indica (ELEIN)): 100%
pest or weed control at 500 g/ha [3]: 100%
pest or weed control at 500 g/ha (Setaria faberi (SETFA)): 100%
pest or weed control at 500 g/ha [4]: 70%
pest or weed control at 500 g/ha [5]: 90%
pest or weed control at 500 g/ha (Lolium perenne (LOLPE)): 70%
pest or weed control at 500 g/ha [6]: 90%

CC(=O)c1cnc(-c2cc[n+](CCC(=O)[O-])nc2)nc1 [Compound A58]
pest or weed control at 500 g/ha [1]: 80%
pest or weed control at 500 g/ha [2]: 10%
pest or weed control at 500 g/ha (Eleusine indica (ELEIN)): 80%
pest or weed control at 500 g/ha [3]: 90%
pest or weed control at 500 g/ha (Setaria faberi (SETFA)): 90%
pest or weed control at 500 g/ha [4]: 60%
pest or weed control at 500 g/ha [5]: 100%
pest or weed control at 500 g/ha (Lolium perenne (LOLPE)): 50%
pest or weed control at 500 g/ha [6]: 60%

CNC(=O)c1ccnc(-c2cc[n+](CCC(=O)[O-])nc2)n1 [Compound A59]
pest or weed control at 500 g/ha [1]: 90%
pest or weed control at 500 g/ha [2]: 80%
pest or weed control at 500 g/ha (Eleusine indica (ELEIN)): 90%
pest or weed control at 500 g/ha [3]: 100%
pest or weed control at 500 g/ha (Setaria faberi (SETFA)): 100%
pest or weed control at 500 g/ha [4]: 100%
pest or weed control at 500 g/ha [5]: 90%
pest or weed control at 500 g/ha (Lolium perenne (LOLPE)): 70%
pest or weed control at 500 g/ha [6]: 80%

Cc1cccc(-c2cc[n+](CCC(=O)[O-])nc2)n1 [Compound A63]
pest or weed control at 500 g/ha [1]: 30%
pest or weed control at 500 g/ha [2]: 20%
pest or weed control at 500 g/ha (Eleusine indica (ELEIN)): 50%
pest or weed control at 500 g/ha [3]: 30%
pest or weed control at 500 g/ha (Setaria faberi (SETFA)): 40%
pest or weed control at 500 g/ha [4]: 30%
pest or weed control at 500 g/ha [5]: 40%
pest or weed control at 500 g/ha (Lolium perenne (LOLPE)): 20%
pest or weed control at 500 g/ha [6]: 40%

O=S(=O)([O-])CC[n+]1ccc(-c2ccccn2)cn1 [Compound A64]
pest or weed control at 500 g/ha [1]: 90%
pest or weed control at 500 g/ha [2]: 20%
pest or weed control at 500 g/ha (Eleusine indica (ELEIN)): 100%
pest or weed control at 500 g/ha [3]: 80%
pest or weed control at 500 g/ha (Setaria faberi (SETFA)): 90%
pest or weed control at 500 g/ha [4]: 100%
pest or weed control at 500 g/ha [5]: 90%
pest or weed control at 500 g/ha (Lolium perenne (LOLPE)): 80%
pest or weed control at 500 g/ha [6]: 60%

Cc1cccnc1-c1cc[n+](CCC(=O)[O-])nc1 [Compound A65]
pest or weed control at 500 g/ha [1]: 10%
pest or weed control at 500 g/ha [2]: 10%
pest or weed control at 500 g/ha (Eleusine indica (ELEIN)): 40%
pest or weed control at 500 g/ha [3]: 30%
pest or weed control at 500 g/ha (Setaria faberi (SETFA)): 40%
pest or weed control at 500 g/ha [4]: 20%
pest or weed control at 500 g/ha [5]: 40%
pest or weed control at 500 g/ha (Lolium perenne (LOLPE)): 10%
pest or weed control at 500 g/ha [6]: 30%

Cc1cccnc1-c1cc[n+](CCS(=O)(=O)[O-])nc1 [Compound A66]
pest or weed control at 500 g/ha [1]: 20%
pest or weed control at 500 g/ha [2]: 40%
pest or weed control at 500 g/ha (Eleusine indica (ELEIN)): 40%
pest or weed control at 500 g/ha [3]: 30%
pest or weed control at 500 g/ha (Setaria faberi (SETFA)): 60%
pest or weed control at 500 g/ha [4]: 50%
pest or weed control at 500 g/ha [5]: 40%
pest or weed control at 500 g/ha (Lolium perenne (LOLPE)): 50%
pest or weed control at 500 g/ha [6]: 50%

O=C([O-])CC[n+]1ccc(-c2ncccc2F)cn1 [Compound A67]
pest or weed control at 500 g/ha [1]: 50%
pest or weed control at 500 g/ha [2]: 20%
pest or weed control at 500 g/ha (Eleusine indica (ELEIN)): 70%
pest or weed control at 500 g/ha [3]: 60%
pest or weed control at 500 g/ha (Setaria faberi (SETFA)): 70%
pest or weed control at 500 g/ha [4]: 80%
pest or weed control at 500 g/ha [5]: 60%
pest or weed control at 500 g/ha (Lolium perenne (LOLPE)): 40%
pest or weed control at 500 g/ha [6]: 80%

O=S(=O)([O-])CC[n+]1ccc(-c2ncccc2F)cn1 [Compound A68]
pest or weed control at 500 g/ha [1]: 70%
pest or weed control at 500 g/ha [2]: 50%
pest or weed control at 500 g/ha (Eleusine indica (ELEIN)): 70%
pest or weed control at 500 g/ha [3]: 40%
pest or weed control at 500 g/ha (Setaria faberi (SETFA)): 60%
pest or weed control at 500 g/ha [4]: 100%
pest or weed control at 500 g/ha [5]: 60%
pest or weed control at 500 g/ha (Lolium perenne (LOLPE)): 60%
pest or weed control at 500 g/ha [6]: 70%

O=S(=O)([O-])CC[n+]1ccc(-c2ccc(Cl)cn2)cn1 [Compound A69]
pest or weed control at 500 g/ha [1]: 60%
pest or weed control at 500 g/ha [2]: 40%
pest or weed control at 500 g/ha (Eleusine indica (ELEIN)): 60%
pest or weed control at 500 g/ha [3]: 50%
pest or weed control at 500 g/ha (Setaria faberi (SETFA)): 40%
pest or weed control at 500 g/ha [4]: 50%
pest or weed control at 500 g/ha [5]: 100%
pest or weed control at 500 g/ha (Lolium perenne (LOLPE)): 50%
pest or weed control at 500 g/ha [6]: 40%

O=S(=O)([O-])CC[n+]1ccc(-c2ncc(F)cc2F)cn1 [Compound A70]
pest or weed control at 500 g/ha [1]: 70%
pest or weed control at 500 g/ha [2]: 20%
pest or weed control at 500 g/ha (Eleusine indica (ELEIN)): 20%
pest or weed control at 500 g/ha [3]: 30%
pest or weed control at 500 g/ha (Setaria faberi (SETFA)): 30%
pest or weed control at 500 g/ha [4]: 50%
pest or weed control at 500 g/ha [5]: 90%
pest or weed control at 500 g/ha (Lolium perenne (LOLPE)): 20%
pest or weed control at 500 g/ha [6]: 30%

O=C([O-])CC[n+]1ccc(-c2ccc(F)cn2)cn1 [Compound A71]
pest or weed control at 500 g/ha [1]: 60%
pest or weed control at 500 g/ha [2]: 40%
pest or weed control at 500 g/ha (Eleusine indica (ELEIN)): 30%
pest or weed control at 500 g/ha [3]: 30%
pest or weed control at 500 g/ha (Setaria faberi (SETFA)): 30%
pest or weed control at 500 g/ha [4]: 40%
pest or weed control at 500 g/ha [5]: 100%
pest or weed control at 500 g/ha (Lolium perenne (LOLPE)): 10%
pest or weed control at 500 g/ha [6]: 30%
